Data as given in patent EP0456229A2, “Arylsulfatase” (Bristol-Myers Squibb Company, priority 1990, dated 1991).
Values belong to the compound of their own block, whether it stands above or below them.

Columns and labels:
[1] = compared with etoposide; cited from earlier work
[2] = system: Es-1 sulfatase; assay: Substrate specificity: hydrolysis of etoposide derivatives (TLC); type: biochemical, Streptomyces griseorubiginosus S980-14; settings: 0.6 u enzyme, 50 mM Tris-HCl pH 7.5, 37°C for 18 hours, silica gel TLC
Description: • (a) Optimum pH. The stock enzyme solution (0.6 u in 50 µl of 50 mM Tris-HCl, pH 7.5) was added to 100 µl each of the following buffers: 500 mM sodium acetate (pH 4.0-5.5), 500 mM Tris-maleate (pH 5.5-7.5), 500 mM Tris-HCl (pH 7.5-9.0), and 500 mM glycine-NaoH (pH 9.0-10.0). The substrate, p-nitrophenylsulfate, was dissolved in each of the above buffers (1 mg/ml). The enzyme-buffer solution (150 µl) was mixed with 50 µl of the substrate solution in the same buffer as the enzyme, and the mixture was incubated for 30 minutes at 37°C. The reaction was quenched by addition of 100 µl of 0.2 N sodium hydroxide solution. The enzyme activity in each buffer was determined spectrophotometrically by UV at 415 nm. […] The stock enzyme solution was dialyzed against water to remove salts. The dialyzed solution (10 µl) was mixed with 40 µl of 50 mM Tris-HCl buffer (pH 7.5). An aliquot (10 µl) of this solution was mixed with 40 µl each of the buffer listed in (a) and incubated for 30 minutes at 30°C. To this solution (50 µl) were added 100 µl of 500 mM Tris-HCl (pH 9.0) and 50 µl of substrate in water (1 mg/ml), and the mixture was incubated at 37°C for 30 minutes to determine the residual enzyme activity. […] Enzyme (0.6 u) in 150 µl of 50 mM Tris-HCl (pH 8.5) was incubated with p-nitrophenylsulfate in the same buffer (1 mg/ml, 50 µl) for 30 minutes at various temperatures. […] Enzyme preparations (0.6 u) in 50 mM Tris-HCl (150 µl, pH 8.5) were incubated for 15 minutes at various temperatures and then cooled in an ice bath. p-Nitrophenylsulfate in the same buffer (1 mg/ml, 50 µl) was added to the enzyme solution, and the mixture was incubated for 30 minutes at 37°C. […] Fifty µl of enzyme solution (0.6 u in 50 mM Tris-HCl, pH 8.5), 80 µl of 50 mM Tris-HCl (pH 8.5), 50 µl of p-nitrophenyl sulfate (1 mg/ml in same buffer), and 20 µl of ion (10 mM) were mixed. The solution was incubated for 30 minutes at 37°C. p-Nitrophenol released was spectrophotometrically assayed by UV at 415 nm. […] The protocol used in (e) was followed with the exception that 1 mM of an enzyme inhibitor was used instead of a metal ion. […] The protocol used in (e) was followed, except that 5 mM of a salt was used instead of 10 mM of a metal ion. […] Four etoposide derivatives were tested as substrate for the sulfatase of the invention. The substrates are: etoposide 4'-sulfate (III), 2'',3''-di-O-acetyl-etoposide-4'-sulfate (IV), etoposide 2''-sulfate (V), and etoposide 3''-sulfate (VI). […] After 18 hours, 100 µl of methanol was added, and 100 µl of sample was analyzed on a silica gel TLC plate using a solvent system consisting of chloroform-methanol (10:1 v/v). […]

[3] = system: Es-1 sulfatase; assay: Substrate specificity: hydrolysis of BU-3285T (TLC, UV densitometry); type: biochemical, Streptomyces griseorubiginosus S980-14; settings: 0.6 u Es-1 sulfatase, pH 8.5, 18 hours at 37°C, UV densitometry at 254 nm
Description: (§1) • (a) Optimum pH. The stock enzyme solution (0.6 u in 50 µl of 50 mM Tris-HCl, pH 7.5) was added to 100 µl each of the following buffers: 500 mM sodium acetate (pH 4.0-5.5), 500 mM Tris-maleate (pH 5.5-7.5), 500 mM Tris-HCl (pH 7.5-9.0), and 500 mM glycine-NaoH (pH 9.0-10.0). The substrate, p-nitrophenylsulfate, was dissolved in each of the above buffers (1 mg/ml). The enzyme-buffer solution (150 µl) was mixed with 50 µl of the substrate solution in the same buffer as the enzyme, and the mixture was incubated for 30 minutes at 37°C. The reaction was quenched by addition of 100 µl of 0.2 N sodium hydroxide solution. The enzyme activity in each buffer was determined spectrophotometrically by UV at 415 nm. […] The stock enzyme solution was dialyzed against water to remove salts. The dialyzed solution (10 µl) was mixed with 40 µl of 50 mM Tris-HCl buffer (pH 7.5). An aliquot (10 µl) of this solution was mixed with 40 µl each of the buffer listed in (a) and incubated for 30 minutes at 30°C. To this solution (50 µl) were added 100 µl of 500 mM Tris-HCl (pH 9.0) and 50 µl of substrate in water (1 mg/ml), and the mixture was incubated at 37°C for 30 minutes to determine the residual enzyme activity. […] After 18 hours, 100 µl of methanol was added, and 100 µl of sample was analyzed on a silica gel TLC plate using a solvent system consisting of chloroform-methanol (10:1 v/v). […]

[4] = system: Es-1 sulfatase; assay: Effect of ions / EDTA treatment and Ca2+ recovery of sulfatase activity; type: biochemical, Streptomyces griseorubiginosus S980-14
Description: • (a) Optimum pH. The stock enzyme solution (0.6 u in 50 µl of 50 mM Tris-HCl, pH 7.5) was added to 100 µl each of the following buffers: 500 mM sodium acetate (pH 4.0-5.5), 500 mM Tris-maleate (pH 5.5-7.5), 500 mM Tris-HCl (pH 7.5-9.0), and 500 mM glycine-NaoH (pH 9.0-10.0). The substrate, p-nitrophenylsulfate, was dissolved in each of the above buffers (1 mg/ml). The enzyme-buffer solution (150 µl) was mixed with 50 µl of the substrate solution in the same buffer as the enzyme, and the mixture was incubated for 30 minutes at 37°C. The reaction was quenched by addition of 100 µl of 0.2 N sodium hydroxide solution. The enzyme activity in each buffer was determined spectrophotometrically by UV at 415 nm. […] The stock enzyme solution was dialyzed against water to remove salts. The dialyzed solution (10 µl) was mixed with 40 µl of 50 mM Tris-HCl buffer (pH 7.5). An aliquot (10 µl) of this solution was mixed with 40 µl each of the buffer listed in (a) and incubated for 30 minutes at 30°C. To this solution (50 µl) were added 100 µl of 500 mM Tris-HCl (pH 9.0) and 50 µl of substrate in water (1 mg/ml), and the mixture was incubated at 37°C for 30 minutes to determine the residual enzyme activity. […] Enzyme (0.6 u) in 150 µl of 50 mM Tris-HCl (pH 8.5) was incubated with p-nitrophenylsulfate in the same buffer (1 mg/ml, 50 µl) for 30 minutes at various temperatures. […] Enzyme preparations (0.6 u) in 50 mM Tris-HCl (150 µl, pH 8.5) were incubated for 15 minutes at various temperatures and then cooled in an ice bath. p-Nitrophenylsulfate in the same buffer (1 mg/ml, 50 µl) was added to the enzyme solution, and the mixture was incubated for 30 minutes at 37°C. […] Fifty µl of enzyme solution (0.6 u in 50 mM Tris-HCl, pH 8.5), 80 µl of 50 mM Tris-HCl (pH 8.5), 50 µl of p-nitrophenyl sulfate (1 mg/ml in same buffer), and 20 µl of ion (10 mM) were mixed. […] After 18 hours, 100 µl of methanol was added, and 100 µl of sample was analyzed on a silica gel TLC plate using a solvent system consisting of chloroform-methanol (10:1 v/v). […]

[5] = system: Es-1 sulfatase; assay: Effect of salts on sulfatase activity; type: biochemical, Streptomyces griseorubiginosus S980-14; settings: 5 mM of a salt, 30 minutes at 37°C, pH 8.5
Description: as §1

substrate for the enzyme [2]: are substrates
Compound: COc1cc(C2c3cc4c(cc3C(OC3OC5COC(C)OC5C(OC(C)=O)C3OC(C)=O)C3COC(=O)C23)OCO4)cc(OC)c1OS(=O)(=O)O (centres unmarked) [(IV), 2'',3''-di-O-acetyl-etoposide-4'-sulfate]

substrate for the enzyme [2]: are not
Compound: COc1cc(C2c3cc4c(cc3C(OC3OC5COC(C)OC5C(O)C3OS(=O)(=O)O)C3COC(=O)C23)OCO4)cc(OC)c1O (centres unmarked) [(V), etoposide 2''-sulfate]

substrate for the enzyme [2]: are not
Compound: COc1cc(C2c3cc4c(cc3C(OC3OC5COC(C)OC5C(OS(=O)(=O)O)C3O)C3COC(=O)C23)OCO4)cc(OC)c1O (centres unmarked) [(VI), etoposide 3''-sulfate]

sulfatase activity restored ([4]; addition of 1 mM of Ca⁺⁺ to the EDTA treated enzyme): 95%
sulfatase activity level ([4]; calcium ion concentrations over 1 mM added to EDTA treated enzyme): close to the original level
Compound: [Ca+2] [Ca⁺⁺]

sulfatase activity (effect of salts) [5]: strongly inhibited
Compound: O=P(O)(O)O [phosphate ion]

Further lines, the compound ahead of its results:

Compound: COc1cc([C@@H]2c3cc4c(cc3[C@@H](O[C@@H]3O[C@@H]5CO[C@@H](C)O[C@H]5[C@H](O)[C@H]3O)[C@H]3COC(=O)[C@H]23)OCO4)cc(OC)c1OS(=O)(=O)O [(III), etoposide 4'-sulfate]
cytotoxicity [1]: much less cytotoxic than etoposide itself
substrate for the enzyme [2]: are substrates

Compound: CCCCC/C=C/C=C\C=C/C(O)C(C)C(C/C=C/C1OC(=O)C=CC1O)OS(=O)(=O)O (centres unmarked) [BU-3285T]
conversion to its desulfated derivative [3]: approximately 70%

Compound: O=C(O)CN(CCN(CC(=O)O)CC(=O)O)CC(=O)O [EDTA]
sulfatase activity ([4]; enzyme treated with 10 mM of EDTA followed by dialysis against water at 4°C): disappeared

Compound: [Cl-].[Na+] [sodium chloride]
sulfatase activity (effect of salts) [5]: strongly inhibited
